Assay results from the supplement of paper PMC10331698.
± gives the standard deviation of the averaged measurements.

How the values were obtained:
Test in all cases: level (log10 ratio to DMSO vehicle control); higher = higher biomarker level / cell amount than vehicle control
Conditions in all cases: in DMSO
[1] = compound: O=C(O)C(F)(F)C(F)(F)C(F)(F)C(F)(F)C(F)(F)C(F)(F)C(F)(F)C(F)F [9-H-Perfluorononanoic acid]
Experimental: (§1)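 BioMAP Diversity Plus panel of 12 human primary cell co-culture systems (3C, 4H, LPS, SAg, BT, BF4T, BE3C, CASM3C, HDF3CGF, KF3CT, MyoF, Mphg). Compounds were added 1 h before stimulation and left for 24 h (MyoF 48 h; BT 72 h for soluble read-outs or 6 d for IgG). Biomarkers were read by ELISA, cytotoxicity by SRB, PBMC viability and proliferation by Alamar Blue. Each well value was divided by the mean of 8 DMSO control wells on the same plate and log10 transformed; duplicate blinded samples were tested at 4 concentrations.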

[2] = compound: C=CC(=O)OCC(F)(F)C(F)(F)C(F)(F)C(F)(F)C(F)(F)C(F)(F)C(F)(F)F [1H,1H-Perfluorooctyl acrylate]
Experimental: as §1

[3] = compound: CCN(CCO)S(=O)(=O)C(F)(F)C(F)(F)C(F)(F)C(F)(F)C(F)(F)C(F)(F)C(F)(F)C(F)(F)F [N-Ethyl-N-(2-hydroxyethyl)perfluorooctanesulfonamide]
Experimental: as §1

[4] = compound: FC(F)(F)C(F)(F)C(F)(F)C(F)(F)C(F)(F)C(F)(F)C(F)(F)C(F)(F)CCS [2-(Perfluorooctyl)ethanthiol]
Experimental: as §1

[5] = compound: O=C(O)C(F)(F)OC(F)(F)C(F)(F)OC(F)(F)C(=O)O [Perfluoro-3,6-dioxaoctane-1,8-dioic acid]
Experimental: as §1

[6] = compound: FC(F)(F)C(F)(C(F)(F)F)C(F)(F)C(F)(F)CC1CO1 [3-(Perfluoro-3-methylbutyl)-1,2-propenoxide]
Experimental: as §1

[7] = compound: O=C(O)C(F)(F)C(F)(F)C(F)F [4H-Perfluorobutanoic acid]
Experimental: as §1

[8] = compound: C=C(C)C(=O)OCCC(F)(F)C(F)(F)C(F)(F)C(F)(F)C(F)(C(F)(F)F)C(F)(F)F [(Perfluoro-5-methylhexyl)ethyl 2-methylprop-2-enoate]
Experimental: as §1

| Test System | level (log10) ([1]; 6700 nM) | level (log10) ([1]; 20000 nM) | level (log10) ([1]; 60000 nM) | level (log10) ([2]; 6700 nM) | level (log10) ([2]; 20000 nM) | level (log10) ([2]; 60000 nM) | level (log10) ([3]; 6700 nM) | level (log10) ([3]; 20000 nM) | level (log10) ([4]; 6700 nM) | level (log10) ([4]; 20000 nM) | level (log10) ([5]; 6700 nM) | level (log10) ([5]; 20000 nM) | level (log10) ([5]; 60000 nM) | level (log10) ([6]; 6700 nM) | level (log10) ([6]; 20000 nM) | level (log10) ([7]; 6700 nM) | level (log10) ([7]; 20000 nM) | level (log10) ([7]; 60000 nM) | level (log10) ([8]; 6700 nM) | level (log10) ([8]; 20000 nM) |
| --- | --- | --- | --- | --- | --- | --- | --- | --- | --- | --- | --- | --- | --- | --- | --- | --- | --- | --- | --- | --- |
| BE3C:CD87/uPAR | 0.0155 ± 0.035 | 0.0015 ± 0.0092 | 0.0325 ± 0.0021 | -0.0045 ± 0.022 | 0.0205 ± 0.026 | 0.0315 ± 0.029 | 0.012 ± 0.016 | -0.024 ± 0.028 | 0.009 ± 0.014 | 0.027 ± 0.0042 | -0.0105 ± 0.005 | -0.0215 ± 0.012 | 0.008 ± 0.03 | 0.01 ± 0.011 | -0.008 ± 0.0057 | -0.003 ± 0.013 | -0.0175 ± 0.019 | 0.0015 ± 0.005 | 0.0035 ± 0.016 | 0.0165 ± 0.035 |
| BE3C:CXCL8/IL-8 | 0.0255 ± 0.084 | 0.0435 ± 0.059 | 0.0385 ± 0.023 | 0.0375 ± 0.012 | 0.066 | 0.071 ± 0.042 | -0.0825 ± 0.013 | -0.218 ± 0.056 | 0.04 ± 0.073 | 0.0135 ± 0.093 | -0.0485 ± 0.0092 | -0.0355 ± 0.0078 | 0.007 ± 0.05 | 0.011 | 0.0205 ± 0.023 | 0.015 ± 0.099 | 0.0165 ± 0.044 | 0.0695 ± 0.071 | -0.0065 ± 0.0092 | -0.008 ± 0.024 |
| BE3C:CXCL9/MIG | -0.0255 ± 0.005 | -0.0285 ± 0.005 | -0.02 ± 0.0099 | -0.002 ± 0.0085 | 0.0035 ± 0.016 | 0.0015 ± 0.0078 | -0.006 ± 0.0028 | -0.0285 ± 0.0035 | -0.0085 ± 0.011 | -0.001 ± 0.011 | 0.0015 ± 0.0064 | -0.003 ± 0.0099 | 0.0015 ± 0.0021 | -0.005 ± 0.0042 | -0.0035 ± 0.005 | -0.0015 ± 0.011 | 0.0085 ± 0.022 | 0.0135 ± 0.0092 | 0.009 ± 0.013 | 0.008 ± 0.0071 |
| BE3C:CXCL10/IP-10 | -0.021 ± 0.0057 | -0.04 ± 0.0042 | -0.149 ± 0.04 | 0.0315 ± 0.015 | 0.0195 ± 0.005 | 0.0235 ± 0.023 | -0.051 ± 0.0028 | -0.141 ± 0.028 | 0.0405 ± 0.05 | 0.016 ± 0.058 | -0.003 ± 0.0057 | 0 ± 0.0014 | 0.005 ± 0.013 | -0.0115 ± 0.023 | -0.0065 ± 0.011 | -0.006 ± 0.021 | -0.001 ± 0.0099 | 0.017 ± 0.021 | 0.032 ± 0.031 | 0.022 ± 0.021 |
| BE3C:CXCL11/I-TAC | -0.01 ± 0.0085 | -0.009 ± 0.0085 | -0.036 ± 0.021 | 0.0115 ± 0.00071 | 0.016 ± 0.0099 | 0.009 ± 0.0014 | -0.006 ± 0.023 | -0.0035 ± 0.029 | 0.0035 ± 0.037 | 0.0175 ± 0.035 | -0.0145 ± 0.0021 | -0.015 ± 0.0042 | -0.006 ± 0.013 | 0 ± 0.0057 | -0.0075 ± 0.0035 | -0.0015 ± 0.0064 | 0.008 ± 0.014 | 0.031 ± 0.011 | 0.005 ± 0.0099 | 0.0105 ± 0.0092 |
| BE3C:EGFR | -0.028 ± 0.0099 | -0.022 ± 0.021 | -0.0425 ± 0.023 | 0.016 ± 0.0071 | 0.01 ± 0.025 | 0.02 ± 0.011 | -0.02 ± 0.0014 | -0.072 ± 0.0057 | 0.025 ± 0.013 | 0.0035 ± 0.03 | 0.0115 ± 0.015 | 0.005 ± 0.021 | 0.0195 ± 0.077 | -0.01 ± 0.013 | -0.023 ± 0.013 | -0.0135 ± 0.011 | -0.0085 ± 0.0064 | 0.032 ± 0.025 | -0.0065 ± 0.011 | 0.009 ± 0.014 |
| BE3C:HLA-DR | -0.102 ± 0.042 | -0.14 ± 0.052 | -0.15 ± 0.0014 | -0.0055 ± 0.005 | -0.0025 ± 0.005 | 0.0055 ± 0.012 | -0.0445 ± 0.013 | -0.115 ± 0.031 | -0.0075 ± 0.0035 | -0.0135 ± 0.0092 | -0.0025 ± 0.00071 | -0.02 ± 0.013 | 0.0085 ± 0.025 | -0.0075 ± 0.005 | -0.003 ± 0.0085 | -0.023 | -0.022 ± 0.0085 | -0.0005 ± 0.028 | -0.0115 ± 0.0078 | -0.0045 ± 0.0078 |
| BE3C:IL-1alpha | 0.032 ± 0.0028 | 0.014 ± 0.028 | 0.026 ± 0.0028 | -0.006 ± 0.018 | -0.0095 ± 0.0035 | -0.0105 ± 0.019 | 0.0165 ± 0.005 | -0.0485 ± 0.059 | -0.038 ± 0.0014 | -0.017 ± 0.016 | 0.0105 ± 0.0092 | 0.013 ± 0.0099 | 0.0235 ± 0.063 | 0.002 ± 0.025 | 0.023 ± 0.057 | -0.0325 ± 0.0064 | -0.018 ± 0.025 | -0.0045 ± 0.079 | -0.017 ± 0.0057 | -0.009 ± 0.0014 |
| BF4T:CCL2/MCP-1 | -0.164 ± 0.011 | -0.19 ± 0.0057 | -0.122 ± 0.036 | -0.0145 ± 0.0021 | -0.0405 ± 0.0078 | -0.027 ± 0.0014 | -0.004 ± 0.013 | -0.022 ± 0.0028 | -0.0265 ± 0.029 | -0.031 ± 0.03 | 0.018 ± 0.027 | 0.0135 ± 0.053 | 0.0265 ± 0.043 | -0.011 ± 0.011 | -0.0035 ± 0.0092 | -0.012 ± 0.0085 | 0.004 ± 0.011 | 0.0475 ± 0.069 | 0.012 ± 0.011 | 0.0275 ± 0.005 |
| BF4T:CCL26/Eotaxin-3 | -0.174 ± 0.028 | -0.198 ± 0.049 | -0.147 ± 0.0071 | -0.008 ± 0.016 | -0.019 ± 0.03 | -0.036 ± 0.031 | 0.0905 ± 0.029 | 0.141 ± 0.0028 | -0.0585 ± 0.04 | -0.037 ± 0.0099 | -0.048 ± 0.059 | -0.037 ± 0.033 | 0.0145 ± 0.11 | 0.012 ± 0.028 | -0.0095 ± 0.016 | -0.035 ± 0.011 | 0.0085 ± 0.0035 | -0.0115 ± 0.063 | -0.0125 ± 0.0064 | 0.016 ± 0.044 |
| BF4T:CD54/ICAM-1 | -0.0775 ± 0.0092 | -0.088 ± 0.0028 | -0.0795 ± 0.00071 | -0.0105 ± 0.005 | -0.0165 ± 0.0035 | -0.0295 ± 0.0092 | 0.0495 ± 0.016 | 0.032 ± 0.0042 | 0.0025 ± 0.005 | -0.003 ± 0.0014 | -0.0025 ± 0.018 | -0.007 ± 0.0057 | 0.012 ± 0.027 | 0.0005 ± 0.018 | -0.011 ± 0.021 | 0.002 ± 0.0085 | -0.0025 ± 0.032 | 0.0075 ± 0.032 | -0.0065 ± 0.015 | -0.017 ± 0.0099 |
| BF4T:CD90 | -0.0705 ± 0.021 | -0.0605 ± 0.013 | -0.0685 ± 0.015 | -0.013 ± 0.014 | -0.003 ± 0.0028 | -0.004 ± 0.031 | -0.013 ± 0.0099 | -0.0145 ± 0.005 | -0.003 ± 0.0028 | -0.0065 ± 0.005 | -0.012 ± 0.0028 | -0.0085 ± 0.005 | -0.004 ± 0.0028 | -0.0175 ± 0.00071 | -0.0165 ± 0.03 | 0.0045 ± 0.0035 | 0.0095 ± 0.011 | 0.01 ± 0.028 | 0.011 | 0 ± 0.0085 |
| BF4T:CD106/VCAM-1 | -0.0885 ± 0.049 | -0.103 ± 0.058 | -0.0625 ± 0.021 | -0.0105 ± 0.0021 | -0.04 ± 0.0014 | -0.049 ± 0.011 | -0.039 ± 0.0085 | -0.0615 ± 0.0092 | -0.003 ± 0.051 | -0.0605 ± 0.0078 | -0.0385 ± 0.022 | -0.042 ± 0.0071 | 0.006 ± 0.071 | 0.0025 ± 0.03 | 0.0425 ± 0.032 | 0.0145 ± 0.033 | -0.0365 ± 0.054 | 0.028 ± 0.078 | -0.012 ± 0.02 | 0.0325 ± 0.036 |
| BF4T:CXCL8/IL-8 | 0.0365 ± 0.021 | 0.038 ± 0.023 | 0.0565 ± 0.016 | 0.0275 ± 0.0092 | 0.01 ± 0.0057 | 0.0465 ± 0.0092 | -0.015 ± 0.014 | -0.004 ± 0.0014 | 0.0625 ± 0.037 | 0.0505 ± 0.05 | -0.011 ± 0.023 | -0.0305 ± 0.0064 | -0.0025 ± 0.037 | 0.0045 ± 0.015 | 0.014 ± 0.03 | 0.0385 ± 0.0078 | 0.046 ± 0.024 | 0.0445 ± 0.04 | 0.067 ± 0.037 | 0.035 ± 0.027 |
